According to patent US20240124464A1, “SUBSTITUTED FUSED BICYCLIC COMPOUND AS KINASE INHIBITOR AND USE THEREOF” (IMPACT THERAPEUTICS (SHANGHAI), INC, priority 2020, published 2024):

What was measured:
NUAK2(h) enzyme = molecular target: T1, NUAK2(h) enzyme (Homo sapiens, UniProt Q9H093); experiment: In vitro NUAK2 enzymatic assay (Eurofins Discovery, [γ-33P]-ATP filter assay); assay type: biochemical; conditions: 45 μM ATP, 40 min, room temperature; read-out: IC50, inhibitory effect on NUAK2 enzyme activity
T1 construct: purchased Eurofins Discovery
T1 sequence (Q9H093 1-628): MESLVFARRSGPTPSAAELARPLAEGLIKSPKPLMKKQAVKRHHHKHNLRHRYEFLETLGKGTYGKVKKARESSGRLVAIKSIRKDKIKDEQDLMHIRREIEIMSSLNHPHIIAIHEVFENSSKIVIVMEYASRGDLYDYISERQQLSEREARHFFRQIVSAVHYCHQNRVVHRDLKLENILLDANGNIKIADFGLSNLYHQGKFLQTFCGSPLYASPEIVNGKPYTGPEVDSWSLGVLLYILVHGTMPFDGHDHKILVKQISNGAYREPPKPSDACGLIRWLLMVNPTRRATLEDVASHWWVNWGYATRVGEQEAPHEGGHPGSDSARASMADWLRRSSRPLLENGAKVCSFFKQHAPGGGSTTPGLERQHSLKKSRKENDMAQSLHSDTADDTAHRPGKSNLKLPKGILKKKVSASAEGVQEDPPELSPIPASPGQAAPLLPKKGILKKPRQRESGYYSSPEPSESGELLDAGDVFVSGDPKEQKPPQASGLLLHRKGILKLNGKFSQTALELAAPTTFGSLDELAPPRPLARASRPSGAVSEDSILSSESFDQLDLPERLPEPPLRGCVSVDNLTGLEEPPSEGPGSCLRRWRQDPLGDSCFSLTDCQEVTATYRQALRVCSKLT
Experimental: In Vitro Assay to Determine the Inhibitory Effect of Compounds in the Patent on NUAK2 Enzymatic Activity
The in vitro NUAK2 enzymatic assay was carried out at Eurofins Discovery to evaluate the inhibitory effect of the compounds presented in the invention. The assay protocol is as follow: the compound to be tested was mixed with NUAK2(h) enzyme and 300 […] substrate in 8 mM MOPS (pH 7.0) buffer containing 0.2 mM EDTA. A Mg/ATP mixture containing 10 mM magnesium acetate and 45 μM [γ-33P]-ATP was added to start the reaction. After incubation for 40 min at room temperature, the reaction was terminated by adding 0.5% phosphoric acid. Then 10 μL of the reaction mix was spotted onto a P30 filter paper. The filter paper was washed four times with 0.425% phosphoric acid with 4 min for each wash, and one time with methanol. The filter paper was air-dried and counted in a liquid scintillation counter. The values obtained were plotted against the drug concentration and the IC50 was calculated.
Table 1 summarizes the inhibitory effect (IC50) of compounds on the NUAK2 enzyme activity in the present invention. ++++ indicates IC50≤10 nM; +++ indicates 10 nM<IC50≤100 nM; ++ indicates 100 nM<IC50≤1 μM; + indicates IC50>1 μM.

[1] = test system: HEC-1-B human endometrial cancer cells; experiment: CTG (CellTiter-Glo) proliferation assay on HEC-1-B cells, 7 days; assay type: cell-based; conditions: 168 h, 7 days incubation, read-out: IC50, inhibitory effect on proliferation of Hec-1B cells
Experimental: CTG Assay to Evaluate the Inhibitory Effect of Compounds on HEC-1-B Human Endometrial Cancer Cells
Human endometrial cancer HEC-1-B cells were resuscitated and cultured in complete medium (MEM medium+10% FBS). When reaching about 80% confluence, the cells were gently blown away from the bottom of the culture dish with a 1 mL pipette. The cells were collected and centrifuged at 500 rpm for 3 min. The supernatant was discarded and the cell pellet was resuspend in fresh medium. Cells were counted to determine cell density and seeded into 96-well plates at a density of 1000 cells per well and incubated overnight at 37° C. in a 5% CO2 incubator. In the next day, the compounds in storage solution was serially diluted with DMSO at a ratio of 1:3 for a total of 9 concentrations. Two μL of each serially diluted solution was added to 98 μL of cell culture medium ([…]), while DMSO was mixed with culture medium similarly to be served as control. The compound dilutions were shaken and mixed. The cell culture plate with cells was removed from CO2 incubator, the culture medium was aspirated from each well, 135 μL of fresh medium was added to each well followed with 15 μL of the compound dilutions. The plates were incubated at 37° C. for 7 days in a 5% CO2 incubator. One hundred μL CellTiter-Glo reagent was added to each well and the plate was vortexed for 2 min and incubated for 10 min to fully lyse the cells. The chemiluminescence values were read using a plate reader.
The chemiluminescence values were plotted against compound concentrations to calculate the inhibitory activity of each compound on cell proliferation Cell inhibition rate (%)=(chemiluminescence value tested compound−chemiluminescence value DMSO control)/(chemiluminescence value medium control−chemiluminescence valueDMSO control)×100%.
A nonlinear S-curve regression was fitted using XLFit software to fit the data to derive a dose-effect curve, from which the IC50 values were calculated. The curve equation was Y=Bottom+(Top-Bottom)/(1+10{acute over ( )}((LogIC50-X)×slope)), where Y is the cellular inhibition rate, X is the compound concentration, Bottom refers to the lowest inhibition rate, and Top refers to the highest inhibition rate.
Table 3 summarizes the inhibitory effects (IC50) of the compounds on the proliferation of Hec-1B cells, Where ++++ indicates 100 nM<IC50≤500 nM; +++ indicates 500 nM<IC50≤1 μM; ++ indicates 1 μM<IC50≤10 μM; + indicates IC50>10 μM.

NUAK1(h) enzyme = molecular target: T2, NUAK1(h) enzyme (Homo sapiens, UniProt O60285); experiment: In vitro NUAK1 enzymatic assay (Eurofins Discovery, [γ-33P]-ATP filter assay); assay type: biochemical; conditions: 45 μM ATP, 40 min, room temperature; read-out: IC50, inhibitory effect on NUAK1 enzyme activity
T2 construct: purchased Eurofins Discovery
T2 sequence (O60285 1-661): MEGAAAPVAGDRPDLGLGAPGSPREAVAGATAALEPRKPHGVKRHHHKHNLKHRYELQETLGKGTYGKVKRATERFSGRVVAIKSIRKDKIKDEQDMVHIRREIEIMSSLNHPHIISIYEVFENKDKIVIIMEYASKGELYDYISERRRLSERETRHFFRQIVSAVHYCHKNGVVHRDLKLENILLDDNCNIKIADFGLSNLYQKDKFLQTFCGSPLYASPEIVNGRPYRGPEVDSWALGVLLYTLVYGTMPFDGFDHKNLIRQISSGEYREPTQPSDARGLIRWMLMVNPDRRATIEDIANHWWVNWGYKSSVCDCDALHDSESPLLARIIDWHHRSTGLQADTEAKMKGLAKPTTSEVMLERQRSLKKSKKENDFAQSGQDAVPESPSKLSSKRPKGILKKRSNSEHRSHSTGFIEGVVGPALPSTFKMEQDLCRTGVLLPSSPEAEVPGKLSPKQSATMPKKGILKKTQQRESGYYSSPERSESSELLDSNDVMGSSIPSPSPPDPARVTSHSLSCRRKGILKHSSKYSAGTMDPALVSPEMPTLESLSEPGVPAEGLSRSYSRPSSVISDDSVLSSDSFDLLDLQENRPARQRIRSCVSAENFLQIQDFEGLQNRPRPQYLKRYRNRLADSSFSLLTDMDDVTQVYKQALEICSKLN
Experimental: In Vitro Assay to Determine the Inhibitory Effect of Compounds in the Patent on NUAK1 Enzymatic Activity
The in vitro NUAK1 enzymatic assay was carried out at Eurofins Discovery to evaluate the inhibitory effect of the compounds presented in the invention. The assay protocol is as follow: the compound to be tested was mixed with NUAK1(h) enzyme and 300 μM […] substrate in 8 mM MOPS (pH 7.0) buffer containing 0.2 mM EDTA and incubated at room temperature. A Mg/ATP mixture containing 10 mM magnesium acetate and 45 μM [y-33P]-ATP was added to start the reaction. After incubation for 40 min at room temperature, the reaction was terminated by adding 0.5% phosphoric acid. Then, 10 μL of the reaction mix was spotted onto a P30 filter paper followed with four times of wash with 0.425% phosphoric acid solution (4 min each time), and one time wash with methanol. The filter paper was air-dried and counted in a liquid scintillation counter. The values obtained were plotted against the drug concentration and the IC50 was calculated.
Table 1 summarizes the inhibitory effect (IC50) of compounds tested on the NUAK1 enzyme activity in the present invention. ++++ indicates IC50≤10 nM; […]; ++ indicates 100 nM<IC50≤1 μM; + indicates IC50>1 μM.

Structure (SMILES)	IC50 (NUAK2(h) enzyme)	IC50 [1]	IC50 (NUAK1(h) enzyme)
COc1cc(N2CCN(C)CC2)ccc1Nc1ncc2c(C)cc(=O)n(C3CCCC3)c2n1 [Example 27, 8-cyclopentyl-2-((2-methoxy-4-(4-methylpiperazin-1-yl)phenyl)amino)-5-methylpyrido[2,3-d]pyrimidin-7(8H)-one]	100 to 1000 nM	1000 to 10000 nM	100 to 1000 nM
COc1cc(N2CCN(C)CC2)ccc1Nc1ncc2c(n1)N(C1CCCCC1)C(=O)CC2 [Example 29, 8-cyclohexyl-2-((2-methoxy-4-(4-methylpiperazin-1-yl)phenyl)amino)-5,8-dihydropyrido[2,3-d]pyrimidin-7(6H)-one]	10 to 100 nM	500 to 1000 nM	10 to 100 nM
CN1CCN(c2ccc(Nc3ncc4c(n3)N(C3CCCC3)C(=O)NC4)c(Br)c2)CC1 [Example 32, 7-((2-bromo-4-(4-methylpiperazin-1-yl)phenyl)amino)-1-cyclopentyl-3,4-dihydropyrimido[4,5-d]pyrimidin-2(1H)-one]	10 to 100 nM	1000 to 10000 nM	10 to 100 nM
COc1cc(N2CCN(C)CC2)ccc1Nc1ncc2cc(C)c(=O)n(C3CC3)c2n1 [Example 21]	100 to 1000 nM	100 to 500 nM	10 to 100 nM
COc1cc(N2CCN(C)CC2)ccc1Nc1ncc2cc(C#N)c(=O)n(C3CCCC3)c2n1 [Example 26, 8-cyclopentyl-2-((2-methoxy-4-(4-methylpiperazin-1-yl)phenyl)amino)-7-oxo-7,8-dihydropyrido[2,3-d]pyrimidine-6-carbonitrile]	10 to 100 nM	500 to 1000 nM	10 to 100 nM
COc1cc(N2CCN(C)CC2)ccc1Nc1ncc2cc(C)c(=O)n(C3CCCC3)c2n1 [Example 20, 8-cyclopentyl-2-((2-methoxy-4-(4-methylpiperazin-1-yl)phenyl)amino)-6-methylpyrido[2,3-d]pyrimidin-7(8H)-one]	10 to 100 nM	> 10000 nM	10 to 100 nM
Cc1cc(N2CCN(C)CC2)ccc1Nc1ncc2cnc(=O)n(C3CCCC3)c2n1 [Example 10, 1-cyclopentyl-7-((2-methyl-4-(4-methylpiperazin-1-yl)phenyl)amino)pyrimido[4,5-d]pyrimidin-2(1H)-one]	10 to 100 nM	500 to 1000 nM	100 to 1000 nM
COc1cc(N2CCN(C)CC2)ccc1Nc1nnc2ccc(=O)n(C3CCCC3)c2n1 [Example 24, 5-cyclopentyl-3-((2-methoxy-4-(4-methylpiperazin-1-yl)phenyl)amino)pyrido[2,3-e][1,2,4]triazin-6(5H)-one]	10 to 100 nM	500 to 1000 nM	100 to 1000 nM
COc1cc(N2CCN(C)CC2)ccc1Nc1ncc2c(n1)N(C1CCCC1)C(=O)NC2 [Example 2, 1-cyclopentyl-7-((2-methoxy-4-(4-methylpiperazin-1-yl)phenyl)amino)-3,4-dihydropyrimido[4,5-d]pyrimidin-2(1H)-one]	10 to 100 nM	1000 to 10000 nM	10 to 100 nM

Further lines, results first:

IC50 (NUAK2(h) enzyme)	IC50 [1]	IC50 (NUAK1(h) enzyme)	Structure (SMILES)
≤ 10 nM	500 to 1000 nM	10 to 100 nM	COc1cc(N2CCN(C)CC2)ccc1Nc1ncc2ccc(=O)n(C3CCCC3)c2n1 [Example 19, 8-cyclopentyl-2-((2-methoxy-4-(4-methylpiperazin-1-yl)phenyl)amino)pyrido[2,3-d]pyrimidin-7(8H)-one]
10 to 100 nM	1000 to 10000 nM	100 to 1000 nM	COc1cc(N2CCN(C)CC2)ccc1Nc1ncc2c(n1)N(C1CCCC1)C(=O)CC2 [Example 28, 8-cyclopentyl-2-((2-methoxy-4-(4-methylpiperazin-1-yl)phenyl)amino)-5,8-dihydropyrido[2,3-d]pyrimidin-7(6H)-one]
≤ 10 nM	> 10000 nM	≤ 10 nM	COc1cc(N2CCN(C)CC2)ccc1Nc1ncc2ccc(=O)n(C3CCCCC3)c2n1 [Example 22, 8-cyclohexyl-2-((2-methoxy-4-(4-methylpiperazin-1-yl)phenyl)amino)pyrido[2,3-d]pyrimidin-7(8H)-one]
10 to 100 nM	500 to 1000 nM	100 to 1000 nM	COc1cc(N2CCN(C)CC2)ccc1Nc1ncc2cnc(=O)n(C3CCCCC3)c2n1 [Example 6, 1-cyclohexyl-7-((2-methoxy-4-(4-methylpiperazin-1-yl)phenyl)amino)pyrimido[4,5-d]pyrimidin-2(1H)-one]
≤ 10 nM	500 to 1000 nM	100 to 1000 nM	COc1cc(N2CCN(C)CC2)ccc1Nc1ncc2cnc(=O)n(C3CCCC3)c2n1 [Example 5, 1-cyclopentyl-7-((2-methoxy-4-(4-methylpiperazin-1-yl)phenyl)amino)pyrimido[4,5-d]pyrimidin-2(1H)-one]
